This passage reports EC50 results from patent US11161819B2, “Substituted tetrahydroisoquinoline compounds useful as GPR120 agonists” (Merck Sharp & Dohme Corp., priority 2016, dated 2021).

The assay has as its target T1, human GPR120 (Homo sapiens, UniProt Q5NUL3).
T1 construct: expressed in transfected cells
T1 sequence (Q5NUL3 1-361): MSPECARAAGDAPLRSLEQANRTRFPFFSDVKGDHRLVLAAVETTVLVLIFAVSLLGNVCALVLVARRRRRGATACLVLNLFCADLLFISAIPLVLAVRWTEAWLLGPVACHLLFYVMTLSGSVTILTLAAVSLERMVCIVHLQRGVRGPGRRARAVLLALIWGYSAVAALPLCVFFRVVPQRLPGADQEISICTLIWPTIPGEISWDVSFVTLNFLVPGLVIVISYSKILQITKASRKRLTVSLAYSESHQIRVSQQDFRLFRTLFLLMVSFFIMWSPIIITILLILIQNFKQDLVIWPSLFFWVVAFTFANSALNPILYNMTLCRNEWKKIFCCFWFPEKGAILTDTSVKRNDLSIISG
Description: Human GPR120 IP1 Assay (inositol phosphate turnover, CisBio IP-One kit). It is filed as cell-based. The conditions noted are these: IP1 accumulation in CHO-K1 cells stably expressing the short form of human GPR120; 60 min compound incubation; 4-parameter fit; read-out: hGPR120 EC50. The procedure, abridged:
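CHO-K1 cells stably expressing short-form human GPR120 were stimulated with compounds for 60 minutes at 37 degrees in stimulation buffer. IP1 accumulation measured by HTRF competitive immunoassay (665/620 nm ratio) against an IP1 standard curve, normalized to a reference compound; EC50 from 4-parameter fit.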
As a reminder, the EC50 is the concentration at which the effect is half-maximal. Regarding `O=C(O)[C@@H]1C[C@H]1c1ccc2c(c1F)CCN(c1cc(OC(F)(F)F)ccc1F)C2` [Example 113], the EC50 was 59 nM.
As for `COc1cc(O[C@H]2C[C@H](OC)C2)cc(N2CCc3cc([C@H]4C[C@@H]4C(=O)O)ccc3C2)c1C#N` [Example 97, (1S,2S)-2-(2-{2-cyano-3-methoxy-5-[(trans-3-methoxycyclobutyl)oxy]phenyl}-1,2,3,4-tetrahydroisoquinolin-6-yl) cyclopropanecarboxylic acid], the figure is 1580 nM.
Next, `O=C(O)CCc1ccc2c(c1)CCN(c1cccc(SC3CCC3)n1)C2` [Example 38, 3-{2-[6-(cyclobutylsulfanyl)pyridin-2-yl]-1,2,3,4-tetrahydroiso-quinolin-6-yl}propanoic acid]: 405 nM; `O=C(O)[C@@H]1C[C@H]1c1ccc2c(c1F)CCN(c1cc(OC(F)(F)F)cc(F)c1Cl)C2` [Example 121, (1R,2R)-2-{2-[2-chloro-3-fluoro-5-(trifluoromethoxy)phenyl]-5-fluoro-1,2,3,4-tetra-hydroisoquinolin-6-yl}cyclo-propanecarboxylic acid]: 73 nM; `Cc1nc(N2CCc3c(ccc(CCC(=O)O)c3F)C2)nc(OC2CCC2)c1C#N` [Example 151, 3-{2-[5-cyano-4-(cyclobutyloxy)-6-methylpyrimidin-2-yl]-5-fluoro-1,2,3,4-tetrahydroisoquino-lin-6-yl}propanoic acid]: 34 nM.
Next, `O=C(O)CCc1ccc2c(c1)CCN(c1cc(OC(F)(F)F)cc(Cl)c1Cl)C2` [Example 156, 3-{2-[2,3-dichloro-5-(trifluoro-methoxy)phenyl]-1,2,3,4-tetra-hydroisoquinolin-6-yl}propanoic acid]: 62 nM; `O=C(O)[C@H]1C[C@@H]1c1ccc2c(c1)CCN(Cc1cc(C(F)(F)F)cc(Cl)c1F)C2` [Example 93, (1S,2S)-2-{2-[3-chloro-2-fluoro-5-(trifluoromethyl)benzyl]-1,2,3,4-tetrahydroisoquinolin-6-yl} cyclopropanecarboxylic acid]: 350 nM; `O=C(O)CCc1ccc2c(c1F)CCN(c1cc(OC(F)(F)F)cc(Cl)c1F)C2` [Example 65, 3-{2-[3-chloro-2-fluoro-5-(trifluoromethoxy)phenyl]-5-fluoro-1,2,3,4-tetra-hydroisoquinolin-6-yl} propanoic acid]: 37 nM.
`C[C@H]1C[C@H](Oc2cc(F)c(F)c(N3CCc4cc([C@H]5C[C@@H]5C(=O)O)ccc4C3)c2)C1` [Example 98, (1S,2S)-2-(2-{2,3-difluoro-5-[(trans-3-methylcyclobutyl)oxy]phenyl}-1,2,3,4-tetrahydroiso-quinolin-6-yl)-cyclopropane-carboxylic acid]: the EC50 is 100 nM.
Next, `COc1cc(F)c(N2CCc3cc(CCC(=O)O)ccc3C2)cc1OC1CCC1` [Example 31, 3-{2-[5-(cyclobutyloxy)-2-fluoro-4-methoxyphenyl]-1,2,3,4-tetrahydroisoquinolin-6-yl}-propanoic acid]: 182 nM; `O=C(O)[C@@H]1C[C@H]1c1ccc2c(c1)CCN(c1cc(OC3CCC3)cc(F)c1F)C2` [Example 85, (1R,2R)-2-{2-[5-(cyclobutyloxy)-2,3-difluorophenyl]-1,2,3,4-tetra-hydroisoquinolin-6-yl}cyclo-propane-carboxylic acid]: 40 nM.
Next, `Cc1cc(-c2cscn2)nc(N2CCc3c(ccc(CCC(=O)O)c3F)C2)c1C#N` [Example 147, 3-[2-(3-Cyano-4-methyl-6-thiazol-4-yl-pyridin-2-yl)-5-fluoro-1,2,3,4-tetrahydro-isoquinolin-6-yl]-propionic acid]: 141 nM.
In the case of `O=C(O)C1CC1c1ccc2c(c1)CCN(c1cc(OC(F)(F)F)ccc1F)C2` (stereo not drawn) [Example 102, 2-{2-[2-fluoro-5-(trifluoromethoxy)phnyl]-1,2,3,4-tetrahydroisoquinolin-6-yl}cyclopropane-carboxylic acid], the EC50 was 118 nM.
Next, `Cc1ccc(-n2nc(C)c(C#N)c2N2CCc3cc(C(C)CCCC(=O)O)ccc3C2)cc1` (single isomer, unassigned) [Example 142, 5-{2-[4-cyano-3-methyl-1-(4-methylphenyl)-1H-pyrazol-5-yl]-1,2,3,4-tetra-hydroisoquinolin-6-yl}hexanoic acid]: 312 nM; `Cc1ccc(-n2nc(C)c(C#N)c2N2CCc3cc(CCCCC(=O)O)ccc3C2)cc1` [Example 134, 5-{2-[4-cyano-3-methyl-1-(4-methyl-phenyl)-1H-pyrazol-5-yl]-1,2,3,4-tetrahydroisoquinolin-6-yl}pentanoic acid]: 41 nM; `Cc1ccc(-n2nc(C)c(F)c2N2CCc3cc(CCC(=O)O)ccc3C2)cc1` [Example 47, 3-{2-[4-fluoro-3-methyl-1-(4-methylphenyl)-1H-pyrazol-5-yl]-1,2,3,4-tetrahydroisoquinolin-6-yl} propanoic acid]: 91 nM.
Regarding `CO[C@H]1C[C@H](Oc2cc(F)c(F)c(N3CCc4cc(CCC(=O)O)ccc4C3)c2)C1` [Example 20, 3-(2-{2,3-difluoro-5-[(trans-3-methoxycyclobutyl)oxy]phenyl}-1,2,3,4-tetrahydroisoquinolin-6-yl)propanoic acid], the concentration for a half-maximal effect (EC50) came out at 29 nM.
Next, `CC(Cc1ccc2c(c1F)CCN(c1cc(OC(F)(F)F)cc(Cl)c1F)C2)C(=O)O` (single isomer, unassigned) [Example 68, 3-{2-[3-chloro-2-fluoro-5-(trifluoromethoxy)phenyl]-5-fluoro-1,2,3,4-tetrahydroisoquinolin-6-yl}-2-methyl-propanoic acid]: 58 nM; `O=C(O)CCc1ccc2c(c1)CCN(c1cc(OC3CCC3)ccc1F)C2` [Example 19, 3-{2-[5-(cyclobutyloxy)-2-fluorophenyl]-1,2,3,4-tetrahydroiso-quinolin-6-yl}propanoic acid]: 27 nM; `CO[C@H]1C[C@H](Oc2cc(C#N)c(F)c(N3CCc4cc([C@@H]5C[C@H]5C(=O)O)ccc4C3)c2)C1` [Example 89, (1R,2R)-2-(2-{3-cyano-2-fluoro-5-[(trans-3-methoxycyclobutyl)oxy]phenyl}-1,2,3,4-tetrahydro-isoquinolin-6-yl)cyclopropane-carboxylic acid]: 185 nM.
`CC(CC(=O)O)c1ccc2c(c1)CCN(c1cc(OC(F)(F)F)ccc1F)C2` (stereo not drawn) [Example 7, 3-(2-(2-fluoro-5-(trifluoromethoxy)phenyl)-1,2,3,4-tetrahydroisoquinolin-6-yl)butanoic acid]: the 50% effective concentration (EC50) came out at 533 nM.
Next, `N#Cc1c(F)cc(OC2CCC2)cc1N1CCc2cc(CCC(=O)O)ccc2C1` [Example 55, 3-{2-[2-cyano-5-(cyclobutyloxy)-3-fluorophenyl]-1,2,3,4-tetrahydro-isoquinolin-6-yl}propanoic acid]: 25 nM; `CC1c2ccc(CCC(=O)O)cc2CCN1c1cc(OC2CCC2)cc(F)c1F` (stereo not drawn) [Example 49, 3-{2-[5-(cyclobutyloxy)-2,3-difluorophenyl]-1-methyl-1,2,3,4-tetrahydroisoquinolin-6-yl}-propanoic acid]: 223 nM.
Regarding `N#Cc1cc(OC(F)(F)F)cc(N2CCc3c(ccc([C@H]4C[C@@H]4C(=O)O)c3F)C2)c1F` [Example 107, (1S,2S)-2-(2-(3-cyano-2-fluoro-5-(trifluoromethoxy)phenyl)-5-fluoro-1,2,3,4-tetrahydroisoquinolin-6-yl)cyclopropanecarboxylic acid], the EC50 is 122 nM.
Next, `Cc1ccc(-n2nc(C)c(C#N)c2N2CCc3cc(O)ccc3C2)cc1` [Example 129, 5-(6-hydroxy-3,4-dihydroisoquinolin-2(1H)-yl)-3-methyl-1-(p-tolyl)-1H-pyrazole-4-carbonitrile]: 92 nM.
With `Cc1ccc(-n2nc(C)c(F)c2N2CCc3cc(C4CC4C(=O)O)ccc3C2)cc1` (stereo not drawn) [Example 94, 2-{2-[4-fluoro-3-methyl-1-(4-methylphenyl)-1H-pyrazol-5-yl]-1,2,3,4-tetrahydroisoquinolin-6-yl}cyclo-propanecarboxylic acid], the EC50 came out at 473 nM.
As for `O=C(O)CCc1ccc2c(c1F)CCN(c1cc(OC3CCC3)cc(F)c1F)C2` [Example 64, 3-{2-[5-(cyclobutyloxy)-2,3-difluorophenyl]-5-fluoro-1,2,3,4-tetra-hydroisoquinolin-6-yl}propanoic acid], the figure is 15 nM.
Next, `COc1ccc(-n2nc(C)c(C#N)c2N2CCc3cc(CCC(=O)O)ccc3C2)cc1` [Example 43, 3-{2-[4-cyano-1-(4-methoxy-phenyl)-3-methyl-1H-pyrazol-5-yl]-1,2,3,4-tetrahydroisoquinolin-6-yl}propanoic acid]: 1470 nM; `N#Cc1c(Cl)cc(OC2CCC2)cc1N1CCc2c(ccc(CCC(=O)O)c2F)C1` [Example 150, 3-{2-[3-chloro-2-cyano-5-(cyclobutyloxy)phenyl]-5-fluoro-1,2,3,4-tetrahydroisoquinolin-6-yl} propanoic acid]: 16 nM.
Consider `N#Cc1c(F)cc(OC(F)(F)F)cc1N1CCc2c(ccc([C@H]3C[C@@H]3C(=O)O)c2F)C1` [Example 119, (1S,2S)-2-{2-[2-cyano-3-fluoro-5-(trifluoromethoxy)phenyl]-5-fluoro-1,2,3,4-tetrahydroisoquinolin-6-yl}cyclopropane-carboxylic acid], for which the EC50 was found to be 273 nM.
